One series concerns Astrocytoma U87. Kind of series: Tumor cell growth / proliferation. Format: cell-based.
Series [1] deals with 4C8a10 cells (revertants of Haras-transformed NIH3T3 fibroblasts). The series can be described thus: Tumor formation of cells pretreated in culture and injected s.c. into athymic nude mice. Type of series: in vivo. Conditions: cells pretreated with NaPA 1.5 mg/ml; after 3 weeks. The text has this: One-two weeks later the cells were transplanted subcutaneously into athymic mice.
(§1) The experimental model involved nonmalignant 4C8a10 cells (revertants of Haras-transformed NIH3T3 fibroblasts). […]
Frederick Cancer Research Facility).

For another series, the system named is 4C8a10 cells. Kind of series: Malignant phenotype in culture / growth on matrigel. Type of series: cell-based. The method, then: as §1
^b Cells were plated on top of matrigel (reconstituted basement membrane) and observed for malignant growth pattern, i.e., active replication, development of characteristic processes, and invasion.

Another series has as its system HL-60. Kind of series: Cell proliferation (cell number). Type of series: cell-based, human. The method, then: The adherent cells were detached with trypsin/EDTA and the cell number determined using a hemocytometer. Data points indicate the mean ± S.D. of duplicates from two independent experiments. The cell lines were obtained from the American Type Culture Collection and maintained in RPMI 1640 (HL-60) or Dulbecco's Modified Eagle's Medium (10T1/2) supplemented with 10% heat inactivated fetal calf serum (Gibco Laboratories), 2 mM L-Glutamine, and antibiotics.

Another series has as its system Kaposi's Sarcoma KS. Kind of series: Tumor cell growth / proliferation. Type of series: cell-based. Conditions: read-out: % Inhibition by NaPA 0.8 mg/ml.
The next series deals with C3H 10T1/2 Cells. The series can be described thus: Tumorigenicity of treated cells in athymic mice. Conditions: NaPA 1.6 mg/ml continuous, time 13 weeks. Here is the method: Premalignant cells (3-4 x 10^5) were plated in 75 cm^2 dishes and 5-AzadC 0.1 µM was added to the growth medium at 20 and 48 hrs after plating. The cells were then subcultured in the absence of the nucleoside analog for an additional seven weeks. […] For the tumorigenicity assay, 4-5 week-old female athymic nude mice were inoculated s.c. with 1 x 10^6 cells and observed for tumor growth at the site of injection.

Structures are written as SMILES. Some results are limits rather than exact numbers.

For the compound `O=C([O-])Cc1ccccc1.[Na+]` [NaPA, sodium phenylacetate], the IC50 in the series on Astrocytoma U87 (Homo sapiens, U-87 MG, read-out: concentration causing about 50% inhibition of growth) fell in the range of 400 to 800 µg/mL. In addition, the inhibition at 800 µg/mL is at least 50% in the series on Astrocytoma U87 (read-out: % Inhibition by NaPA 0.8 mg/ml, 0.8 mg/ml); at most 40% in the series with HL-60 (Homo sapiens, read-out: % Inhibition by NaPA 0.8 mg/ml, HL-60, 0.8 mg/ml); at most 40% with Kaposi's Sarcoma KS. In addition, in series [1], the “Tumor Formation Incidence” value is recorded as 0/8. The Growth on matrigel result in the series on 4C8a10 cells (NaPA 1.5 mg/ml) is recorded as “-”. Besides, the “development of the malignant phenotype” value in the series on 4C8a10 cells (in 5-AzadC treated cultures) is “prevented the development of the malignant phenotype”. For the same compound, the cell proliferation result in the series on HL-60 (treated for four days) is on record as “dose dependent inhibition of cell proliferation”. For the same compound, the “Tumors Diameter” value with C3H 10T1/2 Cells was 0 mm ± S.D. Also, the “Tumors Incidence” value with C3H 10T1/2 Cells (1 x 10^6 cells s.c.) is on record as 0/8.

The values above are taken from EP0567613B1, “COMPOSITIONS FOR THERAPY AND PREVENTION OF CANCER” (The Government of the United States of America, as …, priority 1991, dated 1993).
